Experimental data: US7855189B2, “N-phenylphosphoric acid triamides, method for the production thereof and their use as agents for regulating or inhibiting enzymatic urea hydrolysis” (SKW Stickstoffwerke Piesteritz GmbH, priority 2004, dated 2010)
Marks after values point to notes of the source that are not given here.

Tested on: urease
Test: Testing for urease-inhibiting effect in soil (NH3-N release from urea)
Format: biochemical
Details: 30 g soil at 40% of max water capacity, 50 mg urea
Procedure: 30 g soil set to 40% of the maximum water capacity are added with 1 ml urea solution corresponding to 50 mg urea. At the same time the active substance is applied, preferably dissolved in the urea solution. The concentration details for the individual tested active substances given in the following table relate to the quantity of carbamide nitrogen used in the test. The soil, on the surface of which the urea solution (with and without the active substance) is applied is located in an airtight sealed container into which a receiver is inserted at the same time which collects the ammonia released from the urea as ammonium. By rinsing the receiver daily and analysing the NH4—N quantities contained, the NH3—N-release from the urea is determined.
From the summation of the ammonium quantities in the receiver, the percentage inhibition of the urea hydrolysis dependently upon time is calculated and from these values the t50 value is determined mathematically.
The t50 value is understood to be the time in days since the start of the test at which the urea hydrolysis inhibition is still 50%.

SMILES | urease inhibition t50 value (time in days at which the urea hydrolysis inhibition is still 50%) (conc. 0.05 % HS-N-related (in relation to urea nitrogen used)) | urease inhibition t50 value (time in days at which the urea hydrolysis inhibition is still 50%) (conc. 0.5 % HS-N-related (in relation to urea nitrogen used)) [days]
NP(N)(=O)Nc1ccccc1[N+](=O)[O-] [Compound 1, N-(2-nitrophenyl)phosphoric acid triamide] | >25^b) d | –
Cc1cccc(NP(N)(N)=O)c1 [Compound 2, N-(3-methylphenyl)phosphoric acid triamide] | – | 11.2
